In US12606561B2, “Substituted pyrazolo[1,5-a][1,3,5]triazines as CDK inhibitors” (QURIENT CO., LTD., priority 2018, dated 2026):

What was measured:
[1] = target: T1, CDK5/p25 (Homo sapiens, UniProt Q00535); experiment: Enzymatic assay for CDK5 (LANCE Ultra kinase assay, FRET based); assay type: biochemical; conditions: ATP at Km
T1 construct: purchased Invitrogen PR8543B
Procedure, shortened: (§1)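 TR-FRET kinase assay at ATP Km with ULight-MBP peptide (68 nM) and Eu-anti-phospho-MBP antibody; CDK2/Cyclin A at […], CDK5/p25 at […]. 8-dose 4-fold compound dilutions; 60 min kinase reaction at 23° C., EDTA stop, 60 min detection, read at 615/665 nm.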

[2] = target: T2, CDK7/Cyclin H/MNAT1 (Homo sapiens, UniProt P50613); experiment: Enzymatic assay for CDK7 (LANCE Ultra kinase assay, FRET based); assay type: biochemical; conditions: for IC50: ATP at Km
T2 construct: purchased Invitrogen PR6749B
T2 sequence (P50613 whole entry): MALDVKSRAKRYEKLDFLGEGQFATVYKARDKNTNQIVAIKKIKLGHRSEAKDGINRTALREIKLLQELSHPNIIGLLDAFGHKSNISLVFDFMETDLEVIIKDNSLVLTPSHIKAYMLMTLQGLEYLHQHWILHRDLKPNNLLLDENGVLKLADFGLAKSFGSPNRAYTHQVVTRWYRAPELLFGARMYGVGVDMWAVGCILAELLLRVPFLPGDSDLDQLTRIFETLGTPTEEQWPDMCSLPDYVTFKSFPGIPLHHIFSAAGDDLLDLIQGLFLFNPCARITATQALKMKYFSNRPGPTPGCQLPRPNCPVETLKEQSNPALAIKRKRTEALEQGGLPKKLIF
T2 sequence (P51946 whole entry partner): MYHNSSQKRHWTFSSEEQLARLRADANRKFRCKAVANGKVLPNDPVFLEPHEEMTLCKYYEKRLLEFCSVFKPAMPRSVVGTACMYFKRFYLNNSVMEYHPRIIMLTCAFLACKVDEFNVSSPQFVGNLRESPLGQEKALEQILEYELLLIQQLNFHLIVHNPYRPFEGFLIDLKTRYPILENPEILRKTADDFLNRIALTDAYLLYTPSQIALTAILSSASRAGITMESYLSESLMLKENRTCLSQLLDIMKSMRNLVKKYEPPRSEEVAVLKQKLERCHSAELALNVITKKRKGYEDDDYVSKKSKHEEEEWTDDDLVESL
T2 sequence (P51948 whole entry partner): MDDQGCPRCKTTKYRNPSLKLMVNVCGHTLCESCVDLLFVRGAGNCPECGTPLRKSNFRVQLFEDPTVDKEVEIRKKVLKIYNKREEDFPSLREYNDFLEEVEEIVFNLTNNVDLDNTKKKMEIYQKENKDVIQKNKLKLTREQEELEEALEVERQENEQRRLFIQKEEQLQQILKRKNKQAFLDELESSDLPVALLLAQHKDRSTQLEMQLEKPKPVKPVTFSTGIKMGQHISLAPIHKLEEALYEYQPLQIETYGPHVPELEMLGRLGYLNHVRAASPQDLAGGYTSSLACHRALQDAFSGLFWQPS
Procedure, shortened: (§2)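 FRET read-out: Eu-labeled anti-phospho-antibody binding a phosphorylated ULight peptide. Purified CDK–cyclin complex, ATP at Km.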

[3] = test system: A2780; experiment: A2780 viability assay (CellTiter-Glo, 72 hours); assay type: cell-based; conditions: Homo sapiens; A2780 cells
Procedure, shortened: (§3)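 CellTiter-Glo luminescence read-out after 72 h compound exposure at 37° C, 5% CO2, duplicates. Seeding densities: MV4-11 1×10^4 cells/well, OVCAR-3 5×10^3, A2780 1×10^3. Dose range 0.0015 uM to 10 uM, added 24 h post-plating; DMSO control, final <0.1%.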

[4] = target: T3, CDK1/Cyclin B (Homo sapiens, UniProt P06493); experiment: Enzymatic assay for CDK1 (LANCE Ultra kinase assay, FRET based); assay type: biochemical; conditions: ATP at Km; read-out: CDK1 enzymatic activity IC50
T3 construct: purchased Invitrogen PR4768C
T3 sequence (P06493 whole entry): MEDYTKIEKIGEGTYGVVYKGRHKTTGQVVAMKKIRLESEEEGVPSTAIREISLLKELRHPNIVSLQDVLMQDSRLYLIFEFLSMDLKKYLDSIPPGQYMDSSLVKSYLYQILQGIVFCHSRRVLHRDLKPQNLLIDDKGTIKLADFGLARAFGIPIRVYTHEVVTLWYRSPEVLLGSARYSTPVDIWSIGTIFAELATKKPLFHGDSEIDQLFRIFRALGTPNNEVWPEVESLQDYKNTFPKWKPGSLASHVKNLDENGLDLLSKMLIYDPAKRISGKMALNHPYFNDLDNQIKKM
T3 sequence (P14635 whole entry partner): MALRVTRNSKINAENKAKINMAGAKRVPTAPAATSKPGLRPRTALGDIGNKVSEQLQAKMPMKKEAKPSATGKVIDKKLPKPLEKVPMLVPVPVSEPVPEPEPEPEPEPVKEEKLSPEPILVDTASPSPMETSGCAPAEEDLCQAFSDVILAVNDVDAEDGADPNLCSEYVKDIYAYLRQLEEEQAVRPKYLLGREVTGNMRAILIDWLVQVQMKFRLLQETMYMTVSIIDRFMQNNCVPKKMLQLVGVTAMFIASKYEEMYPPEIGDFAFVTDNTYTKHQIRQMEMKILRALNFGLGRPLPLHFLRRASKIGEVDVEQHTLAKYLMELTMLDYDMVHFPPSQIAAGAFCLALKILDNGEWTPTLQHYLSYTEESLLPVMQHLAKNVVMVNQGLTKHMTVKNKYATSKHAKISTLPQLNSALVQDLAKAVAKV
Procedure, shortened: as §2

[5] = test system: MV4-11; experiment: Cellular MV4-11 viability assay (CellTiter-Glo, 72 hours); assay type: cell-based; conditions: Homo sapiens; MV4-11 cells
Method: Human […] cell line, MV4-11_(ATCC, Cat #CRL-9591), NSCLC (Non-small cell lung cancer) cell line H460 (ATCC, Cat #HTB-177), A2780 (ECACC, Cat #93112519) and OVCAR-3(ATCC, Cat #HTB-161) were obtained from ATCC. Cells were grown in RPMI-1640 media (Invitrogen, Cat #22400-089) supplemented with 10% FBS (Invitrogen, Cat #10099141) and 1% penicillin/streptomycin (Invitrogen, Cat #15070063) and cultured at 37° C., 5% CO2 in a humidified chamber. All cell lines were routinely tested for mycoplasma.
To effect of the CDK7 inhibitor to inhibit the growth of target cancer cells, viability assay were conducted a 72 hour time period. Briefly, the candidate cell line was plated in 96 well plate at the following density of cells respectively. 1×10^4 cells/well for MV4-11, 5×10^3 for H460 and OVCAR-3, and 1×10^3 for A2780. After 24 hours, the cells were treated with various concentrations of the compound (ranging from 0.0015 uM to 10 uM). DMSO solvent without compound served as a control and final DMSO concentration lest than 0.1%. After 72 hours of incubation at 37° C., 5% CO2 incubator, cells were analyzed for the viability using the CellTiter-Glo Luminescent Cell Viability Assay (Promega, Cat #G7570). All viability assays were performed in duplicate and Luminescence was read using an Envision (Perkin Elmer, USA). Data was analyzed using XLfit software.

[6] = target: T4, CDK2/Cyclin A (Homo sapiens, UniProt P24941); experiment: Enzymatic assay for CDK2 (LANCE Ultra kinase assay, FRET based); assay type: biochemical; conditions: ATP at Km
T4 construct: purchased Invitrogen PV6290
Procedure, shortened: as §1

[7] = test system: OVCAR-3; experiment: OVCAR-3 viability assay (CellTiter-Glo, 72 hours); assay type: cell-based; conditions: Homo sapiens; OVCAR-3 cells
Procedure, shortened: as §3

T1 sequence (Q00535 whole entry): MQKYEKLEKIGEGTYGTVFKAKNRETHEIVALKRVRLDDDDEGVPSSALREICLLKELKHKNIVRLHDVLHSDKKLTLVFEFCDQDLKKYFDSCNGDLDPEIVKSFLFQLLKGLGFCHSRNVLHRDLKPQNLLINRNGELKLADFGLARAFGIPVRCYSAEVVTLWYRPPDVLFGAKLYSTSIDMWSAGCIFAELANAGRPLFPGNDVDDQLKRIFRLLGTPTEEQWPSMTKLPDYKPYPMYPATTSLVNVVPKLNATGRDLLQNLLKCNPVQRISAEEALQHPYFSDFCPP
T1 sequence (Q15078 99-307 partner limits assumed): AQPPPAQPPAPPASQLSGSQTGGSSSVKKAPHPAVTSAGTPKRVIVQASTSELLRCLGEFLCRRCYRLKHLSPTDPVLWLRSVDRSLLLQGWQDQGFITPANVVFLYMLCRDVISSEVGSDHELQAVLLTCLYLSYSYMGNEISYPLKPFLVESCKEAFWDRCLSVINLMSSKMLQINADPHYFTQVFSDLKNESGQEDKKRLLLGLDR

IC50 [1] [nM] | IC50 [2] [nM] | CDK1/CDK7: Selectivity of CDK7 inhibition over CDK1 inhibition [2] | CDK2/CDK7: Selectivity of CDK7 inhibition over CDK2 inhibition [2] | CDK5/CDK7: Selectivity of CDK7 inhibition over CDK5 inhibition [2] | IC50 [3] [nM] | IC50 [4] [nM] | IC50 [5] [nM] | IC50 [6] [nM] | IC50 [7] [nM] | SMILES
> 1000 | < 100 | A (A indicates [fold] > 500) | A (A indicates [fold] > 500) | A (A indicates [fold] > 500) | < 1000 | > 1000 | < 1000 | > 1000 | < 1000 | CNC1CCN(c2nc(NCc3ccccc3-c3nccc4cc(NC(=O)/C=C/CN(C)C)ccc34)n3ncc(C(C)C)c3n2)CC1 [Compound 34]
> 1000 | < 100 | B (B indicates 50 < [fold] ≤ 500) | B (B indicates 50 < [fold] ≤ 500) | B (B indicates 50 < [fold] ≤ 500) | < 1000 | > 1000 | < 1000 | > 1000 | < 1000 | CC(C)c1cnn2c(NCc3ccccc3-c3nccc4cc(NC(=O)/C=C/CN(C)C)ccc34)nc(NCCC(C)(C)O)nc12 [Compound 35]
> 1000 | < 100 | A (A indicates [fold] > 500) | A (A indicates [fold] > 500) | A (A indicates [fold] > 500) | < 1000 | > 1000 | < 1000 | > 1000 | < 1000 | CC(C)c1cnn2c(NCc3ccccc3-c3nccc4cc(NC(=O)/C=C/CN(C)C)ccc34)nc(NC3CCC(O)CC3)nc12 (centres unmarked) [Compound 36]
> 1000 | < 100 | A (A indicates [fold] > 500) | A (A indicates [fold] > 500) | B (B indicates 50 < [fold] ≤ 500) | < 1000 | > 1000 | < 1000 | > 1000 | < 1000 | CC(C)c1cnn2c(NCc3ccccc3-c3nccc4cc(NC(=O)/C=C/CN(C)C)ccc34)nc(N3CCC(N(C)C)CC3)nc12 [Compound 39]
> 1000 | < 100 | A (A indicates [fold] > 500) | A (A indicates [fold] > 500) | B (B indicates 50 < [fold] ≤ 500) | < 1000 | > 1000 | < 1000 | > 1000 | < 1000 | CC(C)=CC(=O)Nc1ccc2c(-c3ccccc3CNc3nc(N4CCC(N)CC4)nc4c(C(C)C)cnn34)nccc2c1 [Compound 40]
> 1000 | < 100 | B (B indicates 50 < [fold] ≤ 500) | B (B indicates 50 < [fold] ≤ 500) | B (B indicates 50 < [fold] ≤ 500) | < 1000 | > 1000 | < 1000 | > 1000 | < 1000 | CC(C)c1cnn2c(NCc3ccccc3-c3nccc4cc(NC(=O)/C=C/CN(C)C)ccc34)nc(-n3ccc(CO)n3)nc12 [Compound 41]
> 1000 | 100 to 1000 | B (B indicates 50 < [fold] ≤ 500) | B (B indicates 50 < [fold] ≤ 500) | B (B indicates 50 < [fold] ≤ 500) | < 1000 | > 1000 | < 1000 | > 1000 | < 1000 | CC(C)c1cnn2c(NCc3ccccc3-c3nccc4cc(NC(=O)/C=C/CN(C)C)ccc34)nc(N3CCOCC3)nc12 [Compound 42]
> 1000 | 100 to 1000 | B (B indicates 50 < [fold] ≤ 500) | B (B indicates 50 < [fold] ≤ 500) | B (B indicates 50 < [fold] ≤ 500) | < 1000 | > 1000 | < 1000 | > 1000 | < 1000 | CC(C)c1cnn2c(NCc3ccccc3-c3nccc4cc(NC(=O)/C=C/CN(C)C)ccc34)nc(NCC3CCOCC3)nc12 [Compound 43]
> 1000 | < 100 | A (A indicates [fold] > 500) | A (A indicates [fold] > 500) | A (A indicates [fold] > 500) | < 1000 | > 1000 | < 1000 | > 1000 | < 1000 | COC1CCC(Nc2nc(NCc3ccccc3-c3nccc4cc(NC(=O)/C=C/CN(C)C)ccc34)n3ncc(C(C)C)c3n2)CC1 (centres unmarked) [Compound 44]
> 1000 | < 100 | A (A indicates [fold] > 500) | A (A indicates [fold] > 500) | A (A indicates [fold] > 500) | < 1000 | > 1000 | < 1000 | > 1000 | < 1000 | CC(C)c1cnn2c(NCc3ccccc3-c3nccc4cc(NC(=O)/C=C/CN(C)C)ccc34)nc(NCC3CCNCC3)nc12 [Compound 45]
> 1000 | < 100 | A (A indicates [fold] > 500) | A (A indicates [fold] > 500) | A (A indicates [fold] > 500) | < 1000 | > 1000 | < 1000 | > 1000 | < 1000 | C=CC(=O)Nc1ccc2c(-c3ccccc3CNc3nc(N4CCC(N)CC4)nc4c(C(C)C)cnn34)nccc2c1 [Compound 46]
> 1000 | < 100 | A (A indicates [fold] > 500) | A (A indicates [fold] > 500) | B (B indicates 50 < [fold] ≤ 500) | < 1000 | > 1000 | < 1000 | > 1000 | < 1000 | CC#CC(=O)Nc1ccc2c(-c3ccccc3CNc3nc(N4CCC(N)CC4)nc4c(C(C)C)cnn34)nccc2c1 [Compound 47]
> 1000 | < 100 | A (A indicates [fold] > 500) | A (A indicates [fold] > 500) | A (A indicates [fold] > 500) | < 1000 | > 1000 | < 1000 | > 1000 | < 1000 | C=C(C)C(=O)Nc1ccc2c(-c3ccccc3CNc3nc(N4CCC(N)CC4)nc4c(C(C)C)cnn34)nccc2c1 [Compound 48]
> 1000 | < 100 | A (A indicates [fold] > 500) | A (A indicates [fold] > 500) | A (A indicates [fold] > 500) | < 1000 | > 1000 | < 1000 | > 1000 | < 1000 | CC(C)c1cnn2c(NCc3ccccc3-c3nccc4cc(NC(=O)C5(C#N)CC5)ccc34)nc(N3CCC(N)CC3)nc12 [Compound 49]
